From patent EP0082731A1, “The use of peptides as medicaments” (NOVO INDUSTRI A/S, priority 1981, dated 1983)

How the values were obtained:
[1] = system: isolated perfused rat pancreas; assay: IRI (insulin) release from the isolated perfused rat pancreas
Source text: Such a use should be especially safe as no hypoglycaemia will occur during treatment because of the lack of IRI releasing effect in the presence of hypoglycaemia and normoglycaemia.
Furthermore, it is stated therein that compounds of formula I show no or minor, negligible metabolic effects. […] Based thereupon it is surprising that compounds of formula I have an insulin releasing effect on animals primed with glucose corresponding to hyperglycaemia.

[2] = system: Normoglycaemic Rats; assay: Experiment D: effect on plasma glucose and plasma IRI levels in normoglycaemic rats; format: in vivo, Wistar rats; details: normally fed rats; for Blood glucose / Plasma IRI: i.v. injection at 0 min, equimolar doses (glucagon 1 mg/kg, glucagon(1-21) 0.77 mg/kg), mean, N = 10
Experimental: Glucagon (-1 mg/kg) and an equimolar dosis of glucagon(1-21), i.e. 0.77 mg/kg, were injected intravenously at the beginning time (time: 0 minutes) to normally fed male Wistar rats weighing 150 g (+/- 5 g). Blood samples were taken from the orbital plexus at the times -5, 2, 5, 10, 15, 30, and 60 minutes. Blood glucose was assayed according to the hexokinase method and plasma insulin was assayed by RIA. […] Contrary to glucagon, glucagon(1-21) had no effect on these parameters. Mean blood glucose values (N = 10) are stated in Table VI below, and mean plasma IRI values (N = 10) are stated in Table VII below.

[3] = system: isolated perfused rat pancreas; details: known effect of glucagon; cited from earlier work
[4] = system: rat free fat cells; assay: Lipolytic effect on rat free fat cells in vitro; format: cell-based; details: compared with glucagon
[5] = system: rats; assay: Metabolic effects after administration to normally fasted and fed rats in vivo
[6] = i.v., glucagon 1 mg/kg, glucagon(1-21) 0.77 mg/kg
[7] = buffer glucose concentration 2.0 mg/ml

Substance: Glucagon [reference compound]
- insulin releasing effect ([1]; at hyperglycaemia): have this effect
- insulin releasing effect ([1]; in the presence of normoglycaemia and hypoglycaemia): has an insulin releasing effect
- Blood glucose ([2]; time 2 min): 1.2 mg/mL
- Plasma IRI ([2]; time 2 min): 95 µU/ml
- Blood glucose ([2]; time 5 min): 1.3 mg/mL
- Plasma IRI ([2]; time 5 min): 98 µU/ml
- Blood glucose ([2]; time 10 min): 1.3 mg/mL
- Plasma IRI ([2]; time 10 min): 82 µU/ml
- Blood glucose ([2]; time 15 min): 1.4 mg/mL
- Plasma IRI ([2]; time 15 min): 67 µU/ml
- Blood glucose ([2]; time 30 min): 1.5 mg/mL
- Plasma IRI ([2]; time 30 min): 53 µU/ml
- Blood glucose ([2]; time 60 min): 1.1 mg/mL
- Plasma IRI ([2]; time 60 min): 17 µU/ml
- Blood glucose ([2]; time -5 min): 0.9 mg/mL
- Plasma IRI ([2]; time -5 min): 19 µU/ml
- effect on blood glucose [2, 6]: significantly increasing effect
- effect on plasma IRI [2, 6]: significantly increasing effect
- insulin release [3]: releases insulin

Substance: des-pentapeptide-(22-26)-glucagon [des(22-26)glucagon]
- insulin releasing effect ([1]; at hyperglycaemia): have this effect
- insulin releasing effect [1, 7]: possesses an insulin releasing effect
- lipolytic effect [4]: negligible
- metabolic effects [5]: No metabolic effects have been found

Substance: glucagon(1-26) (HSQGTFTSDYSKYLDSRRAQDFVQWL; Glucagon; UniProt P01275 53-78, looked up, fragment)
- insulin releasing effect ([1]; at hyperglycaemia): have this effect
- insulin releasing effect [1, 7]: possesses an insulin releasing effect
- lipolytic effect [4]: negligible
- metabolic effects [5]: No metabolic effects have been found
